Laboratory results reported in patent US12037324B2, “Biarylmethyl heterocycles” (Université de Montréal, priority 2016, dated 2024).

Tests used:
[1] = biological target: T1, AGTR1 (Homo sapiens, UniProt P30556); experiment: DiscoveRx β-arrestin2 recruitment assay (enzyme complementation, Pathunter CHO-K1 AGTR1 β-arrestin cell line); assay type: cell-based; conditions: for DiscoveRx β-arrestin2 Ymax (%): maximal response
T1 construct: host or cells: Pathunter CHO-K1 AGTR1 β-arrestin cell line (CHO-K1)
T1 sequence (P30556 1-359): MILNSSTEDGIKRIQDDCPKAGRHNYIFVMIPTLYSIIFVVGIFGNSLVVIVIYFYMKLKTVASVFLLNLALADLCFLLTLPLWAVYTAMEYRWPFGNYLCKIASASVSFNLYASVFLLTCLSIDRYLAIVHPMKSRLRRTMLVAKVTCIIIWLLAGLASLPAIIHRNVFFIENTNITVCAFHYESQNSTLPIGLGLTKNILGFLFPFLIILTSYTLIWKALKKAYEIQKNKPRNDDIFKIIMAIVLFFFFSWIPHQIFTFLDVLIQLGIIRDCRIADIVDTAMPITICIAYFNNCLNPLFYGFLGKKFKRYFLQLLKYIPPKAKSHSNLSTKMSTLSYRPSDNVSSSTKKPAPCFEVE
Procedure, shortened: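 Chemiluminescent enzyme-complementation read-out of β-arrestin2 recruitment to AGTR1 in engineered CHO-K1 cells after 90 min compound exposure at 37° C. Values are 4-parameter logistic EC50s in agonist mode, IC50s in antagonist mode, with efficacy relative to the maximal All response.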

[2] = biological target: T1, AGTR1; experiment: DiscoveRx IP1 accumulation assay (HTRF), agonist mode, Pathunter CHO-K1 AGTR1 β-arrestin cell line; assay type: cell-based; conditions: for EC50: read-out: IP-1 EC50
Procedure, shortened: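 Agonist mode in CHO-K1 AGTR1 β-arrestin cells plated 14-16 h before; compounds at varying concentrations for 90 min at 37° C, IP1 accumulation read by HTRF (D2-conjugate and anti-IP1 cryptate, 20 min room temperature). EC50 from 4-parameter logistic fit; activity given as percentage of maximal AII effect.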

[3] = biological target: T2, hAT1R (Homo sapiens, UniProt P30556); experiment: BRET β-arrestin2 biosensor assay, higher receptor expression (hAT1R 5 ng/well), HEK293 cells; assay type: cell-based; conditions: for EC50: High AT1R Expression
T2 sequence (P30556 1-359): T1 sequence (P30556 1-359)

[4] = biological target: T2, hAT1R; experiment: cell-based; conditions: agonist mode; for EC50: read-out: BRET P63 EC50
[5] = biological target: T2, hAT1R; experiment: cell-based; conditions: section of the 42nd table ending at r951, example numbering restarts after the DiscoveRx section; read-out: β-arrestin2 EC50
[6] = DiscoveRx β-arrestin2 recruitment

Row | EC50 [1] | EC50 [5] | SMILES | EC50 [1, 6] | DiscoveRx β-arrestin2 Ymax (%) [1, 6] | IP-1 Ymax (%) [2] | EC50 [2] | BRET β-Arrestin2 High AT1R Expression Ymax (%) [3] | EC50 [3] | BRET P63 Ymax [4] | EC50 [4]
1 |  |  | CCc1nc2c(C)cc(C)nc2n1Cc1ccc(-c2cc(-c3ccccc3O)ccc2C(=O)O)cc1 [Example 184] | 31 nM | 51.2% | 12.0% | 110 nM | 85.9% | 14.7 nM |  | 
2 |  |  | CCc1nc2c(C)cc(C)nc2n1Cc1ccc(-c2cc(-c3ccc(C(=O)N(C)C)cc3)ccc2C(=O)O)cc1 [Example 185] | 139 nM | 48.9% | 13.8% | 204 nM | 86.7% | 149 nM | 11.7% | 447 nM
3 |  |  | CCc1nc2c(C)cc(C)nc2n1Cc1ncc(-c2cc(-c3cccc(C)c3)ccc2C(=O)O)cn1 [Example 198, 3-(2-((2-ethyl-5,7-dimethyl-3H-imidazo[4,5-b]pyridin-3-yl)methyl)pyrimidin-5-yl)-3′-methylbiphenyl-4-carboxylic acid] | 122 nM | 33.0% | 14.6% | 646 nM | 95.8% | 428 nM | 13.4% | 7620 nM
4 |  |  | CCc1nc2c(C)cc(C)nc2n1Cc1cnc(-c2cc(-c3cccc(C)c3)ccc2C(=O)O)cn1 [Example 199, 3-(5-((2-ethyl-5,7-dimethyl-3H-imidazo[4,5-b]pyridin-3-yl)methyl)pyrazin-2-yl)-3′-methylbiphenyl-4-carboxylic acid] | 273 nM | 34.2% | 9.3% | 713 nM | 88.5% | 223 nM | 9.6% | 571 nM
5 |  |  | CCc1nc2c(C)cc(C)nc2n1Cc1ccc(-c2cc(-c3cccc(C)c3)ccc2C(=O)O)nn1 [Example 200, 3-(6-((2-ethyl-5,7-dimethyl-3H-imidazo[4,5-b]pyridin-3-yl)methyl)pyridazin-3-yl)-3′-methylbiphenyl-4-carboxylic acid] | 709 nM | 25.1% | 11.4% | 2720 nM | 54.3% | 1780 nM | 4.3% | 2040 nM
6 |  |  | CCc1nc2c(C)cc(C)nc2n1Cc1cnc(-c2cc(-c3cccc(C)c3)ccc2C(=O)O)nc1 [Example 202, 3-(5-((2-ethyl-5,7-dimethyl-3H-imidazo[4,5-b]pyridin-3-yl)methyl)pyrimidin-2-yl)-3′-methylbiphenyl-4-carboxylic acid] | 1110 nM | 19.4% | 5.7% | 2940 nM | 52.0% | 1620 nM |  | > 100000 nM
7 |  |  | CCc1nc2c(C)cc(C)nc2n1Cc1ccc(-c2cc(-c3cccc(C)c3)ccc2C(=O)O)nc1 [Example 203, 3-(5-((2-ethyl-5,7-dimethyl-3H-imidazo[4,5-b]pyridin-3-yl)methyl)pyridin-2-yl)-3′-methyl-[1,1′-biphenyl]-4-carboxylic acid] | 162 nM | 32.3% | 34.9% | 5370 nM | 79.1% | 124 nM | 5.4% | 154 nM
8 |  |  | CCc1nc2c(C)cc(C)nc2n1Cc1ccc(-c2cc(Oc3cccc(Cl)c3)ccc2-c2nnn[nH]2)cc1 [Example 206] | 11.1 nM | 21.2% | 4.8% | 35.4 nM | 57.9% | 15.8 nM |  | 
9 |  |  | CCc1nc2c(C)cc(C)nc2n1Cc1ccc(-c2cc(Oc3cccc(OC(F)(F)F)c3)ccc2-c2nnn[nH]2)cc1 [Example 207] | 11.5 nM | 23.1% | 2.5% | 39.1 nM | 74.8% | 22 nM |  | 
10 |  |  | CCc1nc2c(C)cc(C)nc2n1Cc1ccc(-c2cc(Oc3ccccc3)cc(C)c2-c2nnn[nH]2)cc1 [Example 211, 2-Ethyl-5,7-dimethyl-3-((3′-methyl-5′-phenoxy-2′-(1H-tetrazol-5-yl)-[1,1′-biphenyl]-4-yl)methyl)-3H-imidazo[4,5-b]pyridine] | 96.8 nM | 21.2% | 8.7% | 235 nM | 80.2% | 67 nM |  | 
11 |  |  | CCc1nc2c(C)cc(C)nc2n1Cc1ccc(-c2cc(OCc3ccccc3)ccc2-c2nnn[nH]2)cc1 [Example 212, 3-((5′-(Benzyloxy)-2′-(1H-tetrazol-5-yl)-[1,1′-biphenyl]-4-yl)methyl)-2-ethyl-5,7-dimethyl-3H-imidazo[4,5-b]pyridine] | 10.1 nM | 11.2% | 3.8% | 20.1 nM | 29.2% | 10.6 nM |  | 
12 |  |  | CCc1nc2c(C)cc(C)nc2n1Cc1ccc(-c2cc(Oc3ccccc3)ccc2C(=O)O)cc1 [Example 213, 4′-((2-Ethyl-5,7-dimethyl-3H-imidazo[4,5-b]pyridin-3-yl)methyl)-5-phenoxy-[1,1′-biphenyl]-2-carboxylic acid] | 215 nM | 27.3% | 6.9% | 862 nM | 89.9% | 92.9 nM |  | 
13 |  |  | CCc1nc2c(C)cc(C)nc2n1Cc1ccc(-c2cc(-n3cc(CCO)nn3)ccc2-c2nnn[nH]2)cc1 [Example 226] | 242 nM | 17.5% | 6.7% | 499 nM | 35.0% | 348 nM |  | > 100000 nM
14 |  |  | CCc1nc2c(C)cc(C)nc2n1Cc1ccc(-c2cc(-n3cc(C4=CCCC4)nn3)ccc2-c2nnn[nH]2)cc1 [Example 229] | 39 nM | 24.0% | 6.7% | 195 nM | 82.1% | 25.7 nM |  | > 100000 nM
15 |  |  | CCc1nc2c(C)cc(C)nc2n1Cc1ccc(-c2cc(-c3cn(Cc4ccccc4)nn3)ccc2-c2nnn[nH]2)cc1 [Example 238] | 198 nM | 22.4% | 9.6% | 1260 nM | 62.6% | 281 nM |  | > 100000 nM
16 |  |  | CCc1nc2c(C)cc(C)nc2n1Cc1ccc(-c2cc(Oc3ccc(C)cn3)ccc2-c2nn[nH]n2)cc1 [Example 248] | 26.5 nM | 18.2% | 6.8% | 81.7 nM | 79.5% | 14 nM |  | 
17 |  |  | CCc1nc2c(C)cc(C)nc2n1Cc1ccc(-c2cc(Oc3cc(N)ccn3)ccc2-c2nn[nH]n2)cc1 [Example 249] | 23.8 nM | 34.2% | 17.6% | 70.5 nM | 80.3% | 8 nM | 6.6% | 9.5 nM
18 |  |  | CCc1nc2c(C)cc(C)nc2n1Cc1ccc(-c2cc(Oc3nccs3)ccc2-c2nn[nH]n2)cc1 [Example 252] | 34.3 nM | 15.8% | 8.8% | 144 nM | 41.4% | 29.4 nM |  | > 100000 nM
19 |  |  | CCc1nc2c(C)cc(C)nc2n1Cc1ccc(-c2cc(Oc3cncc(OC)c3)ccc2-c2nn[nH]n2)cc1 [Example 261] | 137 nM | 17.3% | 11.5% | 782 nM | 62.3% | 40 nM |  | > 100000 nM
20 | 1870 nM | 1970 nM | Cc1nc(C)n(Cc2ccc(-c3cc(-c4ccccc4)ccc3-c3nn[nH]n3)cc2)n1 [Example 456, 5-(4″-((3,5-Dimethyl-1H-1,2,4-triazol-1-yl)methyl)-[1,1′:3′,1″-terphenyl]-4′-yl)-2H-tetrazole] |  |  |  |  |  |  |  | 
21 | 1140 nM | 993 nM | Cc1cnn(-c2ccc(-c3nn[nH]n3)c(-c3ccc(Cn4nc(C)nc4C)cc3)c2)c1 [Example 457, 5-(4′-((3,5-Dimethyl-1H-1,2,4-triazol-1-yl)methyl)-5-(4-methyl-1H-pyrazol-1-yl)-[1,1′-biphenyl]-2-yl)-2H-tetrazole] |  |  |  |  |  |  |  | 
